From patent US20260285853A1, “COMPOUNDS AND METHODS FOR MODULATING SPLICING” (REMIX THERAPEUTICS INC., priority 2023, published 2026)
Like-named read-outs stand apart in the source and are kept apart here.

Assays:
Format in all cases: cell-based
[1] = tested on: MYB mRNA; assay: Splicing RT-qPCR assay (THP), Table 2A
[2] = tested on: SMN2 mRNA; assay: Gene panel canonical junction qPCR assay, decrease in CJ mRNA, Table 3; conditions: decrease in canonical junction (CJ) mRNA, gene panel qPCR, Table 3
Summary of the method: (§1)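 Eleven-point dose responses from 10 uM final, 24 h, DMSO ≤0.25%, in A673 or K562 cells. Relative quantification by 2^(−ΔΔCt) against housekeeper and vehicle was converted to percent response over fixed ΔCt windows and fitted to yield IC50.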

[3] = tested on: HTT mRNA; assay: as above
Summary of the method: as §1

[4] = tested on: MYB mRNA; assay: as above
Summary of the method: as §1

[5] = tested on: HTT mRNA; assay: Splicing RT-qPCR assay (THP), Table 2A
[6] = tested on: SH-SY5Y (human neuroblastoma) cells; assay: Cell viability, Cell Titer Glo 2.0 assay; conditions: read-out: Viability SHSY5Y.3 GI50
Summary of the method: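 Following a 72 h incubation (37 °C, 5% CO2, 0.1% DMSO final), compound toxicity toward SH-SY5Y cells was quantified by CellTiter-Glo 2.0.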

[7] = Table 2A (THP), AJ mRNA increase, read-out: MYB AJ (increase in alternative junction mRNA, AC50)
[8] = Table 2A (THP), CJ mRNA decrease, read-out: MYB CJ (decrease in canonical junction mRNA, IC50)
[9] = decrease in canonical junction (CJ) mRNA, gene panel qPCR, Table 3
[10] = Table 2A (THP), AJ mRNA increase, read-out: HTT AJ (increase in alternative junction mRNA, AC50)
[11] = Table 2A (THP), CJ mRNA decrease, read-out: HTT CJ (decrease in canonical junction mRNA, IC50)
[12] = decrease in CJ mRNA levels, canonical junction qPCR, gene panel

| Compound | IC50 [1, 8] | IC50 [2] | IC50 [3, 9] | IC50 [4, 9] | IC50 [5, 11] | GI50 [6] | IC50 ([1]; Table 2A, THP, MYB canonical junction (CJ) mRNA, read-out: MYB CJ (IC50, decrease in canonical junction mRNA)) | IC50 [3, 12] | IC50 [4, 12] | IC50 ([5]; Table 2A, THP, HTT canonical junction (CJ) mRNA, read-out: HTT CJ (IC50, decrease in canonical junction mRNA)) | AC50 [1, 7] | AC50 [5, 10] | AC50 ([1]; Table 2A, THP, MYB alternative junction (AJ) mRNA, read-out: MYB AJ (AC50, increase in alternative junction mRNA)) | AC50 ([5]; Table 2A, THP, HTT alternative junction (AJ) mRNA, read-out: HTT AJ (AC50, increase in alternative junction mRNA)) |
| --- | --- | --- | --- | --- | --- | --- | --- | --- | --- | --- | --- | --- | --- | --- |
| CCNC1CCN(c2cc(F)c(C(=O)Nc3cc(F)c4nc(C)n(C)c4c3)c3nn(C)cc23)CC1 [Compound 299, 4-[4-(ethylamino)-1-piperidyl]-6-fluoro-N-(7-fluoro-2,3-dimethyl-benzimidazol-5-yl)-2-methyl-indazole-7-carboxamide] | > 10 µM | > 10 µM | > 10 µM | > 10 µM | > 10 µM | > 10 µM |  |  |  |  | > 10 µM | > 10 µM |  |  |
| CCNC1CCN(c2cc(F)c(C(=O)Nc3cn4c(C)c(C)nc4c(F)c3OC)c3nn(C)cc23)CC1 [Compound 305, 4-[4-(ethylamino)piperidin-1-yl]-6-fluoro-N-(8-fluoro-7-methoxy-2,3-dimethyl-imidazo[1,2-a]pyridin-6-yl)-2-methylindazole-7-carboxamide] | > 10 µM | > 10 µM | > 10 µM | > 10 µM | > 10 µM | > 10 µM |  |  |  |  | > 10 µM | > 10 µM |  |  |
| CCNC1CCN(c2cc(F)c(C(=O)Nc3cc4c(C)nc(C)cn4n3)c3nn(C)cc23)CC1 [Compound 302, N-(4,6-dimethylpyrazolo [1,5-a]pyrazin-2-yl)-4-[4-(ethylamino)-1-piperidyl]-6-fluoro-2-methyl-indazole-7-carboxamide] | > 10 µM | > 10 µM | > 10 µM | > 10 µM | > 10 µM | > 10 µM |  |  |  |  | > 10 µM | > 10 µM |  |  |
| CCNC1CCN(c2cc(F)c(C(=O)Nc3nc4c(C)nc(C)cn4n3)c3nn(C)cc23)CC1 [Compound 301, N-(6,8-dimethyl-[1,2,4]triazolo[1,5-a]pyrazin-2-yl)-4-(4-(ethylamino)piperidin-1-yl)-6-fluoro-2-methyl-2H-indazole-7-carboxamide 2,2,2-trifluoroacetate] | > 10 µM | 1 to 10 µM | 1 to 10 µM | > 10 µM | 1 to 10 µM | > 10 µM |  |  |  |  | > 10 µM | > 10 µM |  |  |
| CCNC1CCN(c2ccc(C(=O)Nc3cn4cc(C5CC5)nc(C)c4n3)c3nn(C)cc23)CC1 [Compound 309, N-(6-cyclopropyl-8-methylimidazo[1,2-a]-pyrazin-2-yl)-4-[4-(ethylamino)-1-piperidyl]-2-methyl-indazole-7-carboxamide] | > 10 µM | > 10 µM | > 10 µM | > 10 µM | > 10 µM | > 10 µM |  |  |  |  | > 10 µM | > 10 µM |  |  |
| Cc1cn2cc(NC(=O)c3ccc(N4CC(CNC5CC5)C4)c4cn(C)nc34)cc(F)c2n1 [Compound 298, 4-[3-[(cyclopropylamino)-methyl]azetidin-1-yl]-N-(8-fluoro-2-methylimidazo[1,2-a]pyridin-6-yl)-2-methylindazole-7-carboxamide] | 0.1 to 1 µM | < 0.1 µM | 1 to 10 µM | 0.1 to 1 µM | 1 to 10 µM | 1 to 10 µM |  |  |  |  | 0.1 to 1 µM | 1 to 10 µM |  |  |
| COc1nc2c(N3CCC(NC4CC4)CC3)ccc(C(=O)Nc3cc4cn(C)nc4cc3OC)c2o1 [Compound 679, 4-[4-(cyclopropylamino)-1-piperidyl]-2-methoxy-N-(6-methoxy-2-methyl-indazol-5-yl)-1,3-benzoxazole-7-carboxamide] |  |  |  |  |  | 1 to 10 µM | 0.1 to 1 µM | 1 to 10 µM | 0.1 to 1 µM | 1 to 10 µM |  |  | < 0.1 µM | 1 to 10 µM |

Second part, led by results:

| IC50 [1, 8] | IC50 [2] | IC50 [3, 9] | IC50 [4, 9] | IC50 [5, 11] | GI50 [6] | IC50 ([1]; Table 2A, THP, MYB canonical junction (CJ) mRNA, read-out: MYB CJ (IC50, decrease in canonical junction mRNA)) | IC50 [3, 12] | IC50 [4, 12] | IC50 ([5]; Table 2A, THP, HTT canonical junction (CJ) mRNA, read-out: HTT CJ (IC50, decrease in canonical junction mRNA)) | Compound | AC50 [1, 7] | AC50 [5, 10] | AC50 ([1]; Table 2A, THP, MYB alternative junction (AJ) mRNA, read-out: MYB AJ (AC50, increase in alternative junction mRNA)) | AC50 ([5]; Table 2A, THP, HTT alternative junction (AJ) mRNA, read-out: HTT AJ (AC50, increase in alternative junction mRNA)) |
| --- | --- | --- | --- | --- | --- | --- | --- | --- | --- | --- | --- | --- | --- | --- |
| < 0.1 µM | < 0.1 µM | > 10 µM | < 0.1 µM | > 10 µM | 1 to 10 µM |  |  |  |  | CCNC1CCN(c2cc(F)c(C(=O)Nc3cn4cc(C)nc(C)c4n3)c3nn(C)cc23)CC1 [Compound 306, N-(6,8-dimethylimidazo[1,2-a]pyrazin-2-yl)-4-(4-(ethylamino)-piperidin-1-y1)-6-fluoro-2-methyl-2H-indazole-7-carboxamide 2,2,2-trifluoroacetate] | < 0.1 µM | 1 to 10 µM |  |  |
| > 10 µM | 1 to 10 µM | > 10 µM | > 10 µM | > 10 µM | 1 to 10 µM |  |  |  |  | CCNC1CCN(c2cc(F)c(C(=O)Nc3cc(F)c4cn(C)nc4c3)c3nn(C)cc23)CC1 [Compound 300, 4-[4-(ethylamino)-1-piperidyl]-6-fluoro-N-(4-fluoro-2-methylindazol-6-yl)-2-methyl-indazole-7-carboxamide] | > 10 µM | > 10 µM |  |  |
| > 10 µM | 0.1 to 1 µM | > 10 µM | > 10 µM | > 10 µM | 1 to 10 µM |  |  |  |  | CCNC1CCN(c2cc(F)c(C(=O)Nc3cn4cc(C5CC5)nc4c(F)c3OC)c3nn(C)cc23)CC1 [Compound 304, N-(2-cyclopropyl-8-fluoro-7-methoxyimidazo [1,2-a]pyridin-6-yl)-4-[4-(ethylamino)-piperidin-1-yl]-6-fluoro-2-methylindazole-7-carboxamide] | > 10 µM | > 10 µM |  |  |
| > 10 µM | > 10 µM | > 10 µM | > 10 µM | > 10 µM | 1 to 10 µM |  |  |  |  | CCNC1CCN(c2ccc(C(=O)Nc3cc(F)c4cnccc4c3)c3nn(C)cc23)CC1 [Compound 303, 4-[4-(ethylamino)-1-piperidyl]-N-(8-fluoro-6-isoquinolyl)-2-methylindazole-7-carboxamide] | > 10 µM | > 10 µM |  |  |
| > 10 µM | 0.1 to 1 µM | > 10 µM | > 10 µM | > 10 µM | 1 to 10 µM |  |  |  |  | CCNC1CCN(c2cc(F)c(C(=O)Nc3cn4c(Cl)c(C)nc4c(F)c3OC)c3nn(C)cc23)CC1 [Compound 308, N-(3-chloro-8-fluoro-7-methoxy-2-methyl-imidazo [1,2-a]pyridin-6-yl)-4-[4-(ethylamino)-1-piperidyl]-6-fluoro-2-methyl-indazole-7-carboxamide] | > 10 µM | > 10 µM |  |  |
| 0.1 to 1 µM | < 0.1 µM | 1 to 10 µM | 0.1 to 1 µM | 1 to 10 µM | 1 to 10 µM |  |  |  |  | CCNC1CCN(c2ccc(C(=O)Nc3cc(C#N)c4nc(C)cn4c3)c3nn(C)cc23)CC1 [Compound 307, N-(8-cyano-2-methyl-imidazo[1,2-a]pyridin-6-yl)-4-[4-(ethylamino)-1-piperidyl]-2-methyl-indazole-7-carboxamide] | 0.1 to 1 µM | 1 to 10 µM |  |  |
